Patent publication US12697326B2, “Methods of treating hepatic encephalopathy” (SALIX PHARMACEUTICALS, INC., priority 2008, dated 2026)

Columns and labels:
patients with HE [1] = assay: Retrospective chart review of 145 patients with HE, lactulose then rifaximin; assay type: in vivo, human
From the text: Total number of hospitalizations, duration of hospitalizations, HE endpoints, and cost of therapy were compared between the 2 treatment regimens.

[2] = system: liver transplant patients with HE; assay: Chart review of 39 liver transplant patients with HE Conn scores of 2; assay type: in vivo, human; conditions: 24 lactulose, 15 rifaximin
patients with HE [3] = conditions: 6-month study; rifaximin 1200 mg/day, neomycin 3 g/day; 14 days on, 14 days off per month; cited from earlier work

Row | Compound | patients with Conn scores of 3 or 4 at end of treatment period (patients with HE [1]) [%] | hospitalizations reported for the group [2] | efficacy in patients with HE, rifaximin versus neomycin (patients with HE [3])
1 | OC[C@H]1O[C@@H](O[C@@H]2[C@@H](CO)OC(O)(CO)[C@H]2O)[C@H](O)[C@@H](O)[C@H]1O (mixture of isomers) [lactulose] | 25 | Nineteen | –
2 | neomycin | – | – | comparable efficacy
